Measured values as given in US6737383B1, “Herbicidal oxadiazolidines” (priority 1999, dated 2004).

Legend:
giant foxtail = assay: Test B pre/postemergence giant foxtail; assay type: in vivo, Setaria faberii
Outline: (§1)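 Herbicidal effect was estimated by eye on a ten-point control scale after plants spent twelve to sixteen days in a greenhouse following soil or foliar treatment. Foliar sprays targeted plants at one to four leaves; all doses were formulated in a non-phytotoxic solvent with surfactant.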

corn = assay: Test B pre/postemergence corn; assay type: in vivo, Zea mays
Outline: as §1

soybean = assay: Test B pre/postemergence soybean; assay type: in vivo, Glycine max; conditions: for Plant response rating, Soybean: Postemergence
Outline: as §1

morningglory = assay: Test B pre/postemergence morningglory; assay type: in vivo, Ipomoea hederacea
Outline: as §1

pigweed = assay: Test B pre/postemergence pigweed; assay type: in vivo, Amaranthus retroflexus; conditions: for Plant response rating, Redroot pigweed: Postemergence
Outline: as §1

crabgrass = assay: Test B pre/postemergence crabgrass; assay type: in vivo, Digitaria sanguinalis
Outline: as §1

purple nutsedge = assay: Test B pre/postemergence purple nutsedge; assay type: in vivo, Cyperus rotundus; conditions: for Nutsedge plant response rating: Rate 125 g/ha, scale 0 to 10, 0 is no effect, 10 is complete control
Outline: as §1

blackgrass = assay: Test B pre/postemergence blackgrass; assay type: in vivo, Alopecurus myosuroides
Outline: as §1

surinam grass = assay: Test B pre/postemergence surinam grass; assay type: in vivo, Brachiaria decumbens; conditions: for Plant response rating, B. signalgrass: scale of 0 to 10 where 0 is no effect and 10 is complete control
Outline: as §1

bedstraw = assay: Test B pre/postemergence bedstraw; assay type: in vivo, Galium aparine; conditions: Preemergence
Outline: as §1

wild oat = assay: Test B pre/postemergence wild oat; assay type: in vivo, Avena fatua; conditions: for Plant response rating, Wild oats: Postemergence
Outline: as §1

cocklebur = assay: Test B pre/postemergence cocklebur; assay type: in vivo, Xanthium strumarium
Outline: as §1

sugar beet = assay: Test B pre/postemergence sugar beet; assay type: in vivo, Beta vulgaris
Outline: as §1

rape = assay: Test B pre/postemergence rape; assay type: in vivo, Brassica napus
Outline: as §1

velvetleaf = assay: Test B pre/postemergence velvetleaf; assay type: in vivo, Abutilon theophrasti; conditions: for Plant response rating, Velvetleaf: Postemergence
Outline: as §1

wheat = assay: Test B pre/postemergence wheat; assay type: in vivo, Triticum aestivum; conditions: for Plant response rating, Wheat: Postemergence
Outline: as §1

[1] = Postemergence, Rate 125 g/ha, scale 0 to 10, 0 is no effect, 10 is complete control
[2] = Preemergence, Rate 62 g/ha, scale 0 to 10 (0 no effect, 10 complete control)
[3] = Preemergence, Rate 125 g/ha, scale 0 to 10, 0 is no effect, 10 is complete control
[4] = Preemergence, Rate 500 g/ha, scale of 0 to 10 where 0 is no effect and 10 is complete control
[5] = Rate 250 g/ha, Postemergence, scale of 0 to 10 where 0 is no effect and 10 is complete control
[6] = Postemergence, Rate 62 g/ha, scale of 0 to 10, 0 is no effect, 10 is complete control
[7] = Postemergence, Rate 500 g/ha, scale of 0 to 10 where 0 is no effect and 10 is complete control
[8] = Rate 500 g/ha, scale of 0 to 10 where 0 is no effect and 10 is complete control
[9] = Rate 250 g/ha, scale of 0 to 10 where 0 is no effect and 10 is complete control

Compound: C=CCCCn1c(=O)on(C(=O)N(c2ccccc2)C(C)C)c1=O [Compound 575]
- Giant foxtail plant response rating (giant foxtail; [1]): 2
- Giant foxtail plant response rating (giant foxtail; [2]): 8
- Giant foxtail plant response rating (giant foxtail; [3]): 10
- Giant foxtail plant response rating (0 to 10 scale) (giant foxtail; Preemergence, Rate 250 g/ha): 10
- Giant foxtail plant response rating (giant foxtail; [4]): 10
- Plant response rating, Giant foxtail (giant foxtail; [5]): 8
- Corn plant response rating (corn; [6]): 0
- Corn plant response rating (corn; [1]): 0
- Plant response rating, Corn (corn; [7]): 0
- Corn plant response rating (corn; [2]): 0
- Corn plant response rating (corn; [3]): 0
- Corn plant response rating (0 to 10 scale) (corn; Preemergence, Rate 250 g/ha): 0
- Corn plant response rating (corn; [4]): 3
- Plant response rating, Corn (corn; [5]): 0
- Plant response rating, Soybean (soybean; [8]): 6
- Soybean plant response rating (soybean; [2]): 0
- Soybean plant response rating (soybean; [3]): 0
- Soybean plant response rating (0 to 10 scale) (soybean; Preemergence, Rate 250 g/ha): 0
- Soybean plant response rating (soybean; [4]): 0
- Plant response rating, Soybean (soybean; [9]): 5
- Morningglory plant response rating (morningglory; [6]): 4
- Morningglory plant response rating (morningglory; [1]): 6
- Plant response rating, Morningglory (morningglory; [7]): 10
- Morningglory plant response rating (morningglory; [2]): 0
- Morningglory plant response rating (morningglory; [3]): 0
- Morningglory plant response rating (0 to 10 scale) (morningglory; Preemergence, Rate 250 g/ha): 0
- Morningglory plant response rating (morningglory; [4]): 2
- Plant response rating, Morningglory (morningglory; [5]): 9
- Plant response rating, Redroot pigweed (pigweed; [8]): 7
- Redroot pigweed plant response rating (pigweed; [2]): 9
- Redroot pigweed plant response rating (pigweed; [3]): 9
- Redroot pigweed plant response rating (0 to 10 scale) (pigweed; Preemergence, Rate 250 g/ha): 10
- Redroot pigweed plant response rating (pigweed; [4]): 10
- Plant response rating, Redroot pigweed (pigweed; [9]): 4
- Crabgrass plant response rating (crabgrass; [6]): 0
- Crabgrass plant response rating (crabgrass; [1]): 2
- Plant response rating, Crabgrass (crabgrass; [7]): 9
- Crabgrass plant response rating (crabgrass; [2]): 8
- Crabgrass plant response rating (crabgrass; [3]): 9
- Crabgrass plant response rating (0 to 10 scale) (crabgrass; Preemergence, Rate 250 g/ha): 9
- Crabgrass plant response rating (crabgrass; [4]): 9
- Plant response rating, Crabgrass (crabgrass; [5]): 9
- Nutsedge plant response rating (purple nutsedge; Postemergence): 0
- Nutsedge plant response rating (purple nutsedge; Preemergence): 0
- Nutsedge plant response rating (0 to 10 scale) (purple nutsedge; Preemergence, Rate 250 g/ha): 0
- Plant response rating, Nutsedge (purple nutsedge; [5]): 0
- Blackgrass plant response rating (blackgrass; [6]): 0
- Blackgrass plant response rating (blackgrass; [1]): 0
- Plant response rating, Blackgrass (blackgrass; [7]): 3
- Blackgrass plant response rating (blackgrass; [2]): 2
- Blackgrass plant response rating (blackgrass; [3]): 6
- Blackgrass plant response rating (0 to 10 scale) (blackgrass; Preemergence, Rate 250 g/ha): 7
- Blackgrass plant response rating (blackgrass; [4]): 2
- Plant response rating, Blackgrass (blackgrass; [5]): 0
- B. signalgrass plant response rating (surinam grass; [6]): 0
- B. signalgrass plant response rating (surinam grass; [1]): 0
- Plant response rating, B. signalgrass (surinam grass; Postemergence, Rate 500 g/ha): 3
- B. signalgrass plant response rating (surinam grass; [2]): 6
- B. signalgrass plant response rating (surinam grass; [3]): 9
- B. signalgrass plant response rating (0 to 10 scale, 0 is no effect, 10 is complete control) (surinam grass; Preemergence, Rate 250 g/ha): 10
- Plant response rating, B. signalgrass (surinam grass; Rate 250 g/ha, Postemergence): 0
- Bedstraw plant response rating (bedstraw; Rate 62 g/ha, scale 0 to 10 (0 no effect, 10 complete control)): 0
- Bedstraw plant response rating (bedstraw; Rate 125 g/ha, scale 0 to 10, 0 is no effect, 10 is complete control): 0
- Bedstraw plant response rating (0 to 10 scale) (bedstraw; Rate 250 g/ha): 0
- Bedstraw plant response rating (bedstraw; [8]): 0
- Plant response rating, Wild oats (wild oat; [8]): 0
- Wild oats plant response rating (wild oat; [2]): 0
- Wild oats plant response rating (wild oat; [3]): 0
- Wild oats plant response rating (0 to 10 scale) (wild oat; Preemergence, Rate 250 g/ha): 2
- Wild oats plant response rating (wild oat; [4]): 2
- Plant response rating, Wild oats (wild oat; [9]): 0
- Cocklebur plant response rating (cocklebur; [6]): 0
- Cocklebur plant response rating (cocklebur; [1]): 0
- Plant response rating, Cocklebur (cocklebur; [7]): 2
- Cocklebur plant response rating (cocklebur; [2]): 0
- Cocklebur plant response rating (cocklebur; [3]): 0
- Cocklebur plant response rating (0 to 10 scale) (cocklebur; Preemergence, Rate 250 g/ha): 0
- Cocklebur plant response rating (cocklebur; [4]): 0
- Plant response rating, Cocklebur (cocklebur; [5]): 0
- Plant response rating, Sugarbeets (sugar beet; [7]): 2
- Sugarbeets plant response rating (sugar beet; [2]): 0
- Sugarbeets plant response rating (sugar beet; [3]): 0
- Sugarbeets plant response rating (0 to 10 scale) (sugar beet; Preemergence, Rate 250 g/ha): 0
- Sugarbeets plant response rating (sugar beet; [4]): 2
- Rape plant response rating (rape; [6]): 0
- Rape plant response rating (rape; [1]): 0
- Plant response rating, Rape (rape; [7]): 3
- Rape plant response rating (rape; [2]): 0
- Rape plant response rating (rape; [3]): 2
- Rape plant response rating (0 to 10 scale) (rape; Preemergence, Rate 250 g/ha): 2
- Rape plant response rating (rape; [4]): 2
- Plant response rating, Rape (rape; [5]): 3
- Plant response rating, Velvetleaf (velvetleaf; [8]): 3
- Velvetleaf plant response rating (velvetleaf; [2]): 0
- Velvetleaf plant response rating (velvetleaf; [3]): 0
- Velvetleaf plant response rating (0 to 10 scale) (velvetleaf; Preemergence, Rate 250 g/ha): 0
- Velvetleaf plant response rating (velvetleaf; [4]): 2
- Plant response rating, Velvetleaf (velvetleaf; [9]): 2
- Plant response rating, Wheat (wheat; [8]): 2
- Wheat plant response rating (wheat; [2]): 0
- Wheat plant response rating (wheat; [3]): 0
- Wheat plant response rating (0 to 10 scale) (wheat; Preemergence, Rate 250 g/ha): 0
- Wheat plant response rating (wheat; [4]): 0
- Plant response rating, Wheat (wheat; [9]): 0
